Data as given in US9963461B2, “Phillygenin ibuprofen ester, preparation method therefor, and application thereof” (priority 2014, dated 2018).
Read-outs that look alike come from different tables or passages of the source. Marks after values point to notes of the source that are not given here.

Tests used:
[1] = system: parainfluenza virus; type: in vivo, Kunming mice; conditions: for Lung index (X ± S) / Lung index Inhibitive rate (%): parainfluenza virus infected mice, 5 days
[2] = system: influenza virus; type: in vivo, Kunming mice; conditions: lung suspensions, influenza virus infected mice, 5 days
[3] = system: parainfluenza virus; type: in vivo, Kunming mice; conditions: mouse, in vivo
[4] = system: sweat secretion of rat paw part; experiment: Sweat secretion of rat paw part (coloring method); type: in vivo, Wistar rats; conditions: for Animal number of sweat points of level +: + = sweat area below about 10%; for Animal number of sweat points of level ++: ++ = sweat area about 11-40%; for Animal number of sweat points of level +++: +++ = sweat area about 41-70%; for Animal number of sweat points of level ++++: ++++ = sweat area over 71%; for Animal number of sweat points of level −: − = no sweat point
From the text: This test was designed to observe the change of sweat secretion based on the mechanism that sweat gland is distributed on the rat paw pads, and iodine and starch can have purple reaction when encountered with sweat. In the test, 350 Wistar rats were selected, with equal male and female number, weighing 120-150 g. […] The rats were placed in a self-made rat fixation bag, with the double hind limbs exposed. The dirts on the right paw was gently scrubbed clean with the cotton swab dipped with anhydrous ethanol. Besides that subcutaneous injection was used for the pilocarpine solution, intragastric administration was used for all the other groups. […] When the test was complete, statistical process was carried out according to the rank-sum test with two-sample comparison, in order to compare the difference between the groups.

[5] = system: rabbit fever induced by typhoid and paratyphoid vaccine; experiment: Rabbit fever induced by typhoid and paratyphoid vaccine; type: in vivo, Japanese white rabbits
Method: Japanese male big-ear white rabbits, weighing 1.5-2.0 kg. Before the test, WSC-411P portable digital thermometer was used to measure the normal rectal temperature twice (with certain interval for each time), and the average value was taken as the normal body temperature. Then 48 Japanese big-ear white rabbits with body temperature of 38-39.6° C. were selected and randomly divided into 8 groups by weight, namely: the blank control (normal saline) group, the model control (0.5% carboxymethylcellulose) group, the ibuprofen group (300 mg/kg), the phillygenin group (10 mg/kg), the 1.25, 2.5, and 5 mg/kg phillygenin ibuprofen ester groups and the positive drug paracetamol (50 mg/kg) group. The rabbits were fixed in a fixator. The blank control group was intravenously injected with normal saline of 1 ml/kg via the ear margin; The model control group and the drug groups were intravenously injected with typhoid and paratyphoid vaccines of 0.8 ml/kg via the ear margin. When the body temperature rise of the rabbits was greater than 1° C. (requiring about 1-1.5 h, which was restricted to 1 h in this test), the blank control group and the model group were administered intragastrically with 0.5% carboxymethycellulose of 1 ml/kg, and the drug groups were administered intragastrically with phillygenin ibuprofen ester and paracetamol. […]

[6] = system: mice pain induced by acetic acid; experiment: Analgesic test, mice writhing induced by acetic acid; type: in vivo, Kunming mice; conditions: for Writhing times: within 15 min after 0.7% acetic acid
Method: 72 Kunming mice were randomly divided into 6 groups, with 12 mice for each group. (1) the blank normal control group (i.e. saline group, […]); (2) positive drug aspirin group (200 mg/kg); (3) ibuprofen group (300 mg/kg); (4) high dose group of phillygenin ibuprofen ester (300 mg/kg); (5) medium dose group of phillygenin ibuprofen ester (150 mg/kg); (6) low dose group of phillygenin ibuprofen ester (75 mg/kg). […] The number of mice writhings within 15 min after administration was recorded. The number of writhings was taken as the evaluation index to evaluate the analgesic effect.

[7] = Solubility; type: physicochemical
[8] = system: Vero cell; experiment: Cytotoxicity test on Vero cell (MTT); conditions: 72 hours
[9] = after coating B liquid for 1 minute, 2.5 mg/kg intragastric
[10] = after coating B liquid for 1 minute, 5.0 mg/kg intragastric
[11] = after coating B liquid for 1 minute, 10.0 mg/kg intragastric
[12] = after coating B liquid for 5 minutes, 2.5 mg/kg intragastric
[13] = after coating B liquid for 5 minutes, 5.0 mg/kg intragastric
[14] = after coating B liquid for 5 minutes, 10.0 mg/kg intragastric
[15] = after coating B liquid for 10 minutes, 2.5 mg/kg intragastric
[16] = after coating B liquid for 10 minutes, 5.0 mg/kg intragastric
[17] = after coating B liquid for 10 minutes, 10.0 mg/kg intragastric
[18] = after coating B liquid for 15 minutes (Table 2-4), 2.5 mg/kg intragastric
[19] = after coating B liquid for 15 minutes (Table 2-4), 5.0 mg/kg intragastric
[20] = after coating B liquid for 15 minutes (Table 2-4), 10.0 mg/kg intragastric
[21] = after coating B liquid for 15 minutes (Table 2-5), 2.5 mg/kg intragastric
[22] = after coating B liquid for 15 minutes (Table 2-5), 5.0 mg/kg intragastric
[23] = after coating B liquid for 15 minutes (Table 2-5), 10.0 mg/kg intragastric
[24] = 1.25 mg/kg, time after administration (min) 30
[25] = 1.25 mg/kg, time after administration (min) 60
[26] = 1.25 mg/kg, time after administration (min) 90
[27] = 1.25 mg/kg, time after administration (min) 120
[28] = 1.25 mg/kg, time after administration (min) 180
[29] = 2.5 mg/kg, time after administration (min) 30
[30] = 2.5 mg/kg, time after administration (min) 60
[31] = 2.5 mg/kg, time after administration (min) 90
[32] = 2.5 mg/kg, time after administration (min) 120
[33] = 2.5 mg/kg, time after administration (min) 180
[34] = 5.0 mg/kg, time after administration (min) 30
[35] = 5.0 mg/kg, time after administration (min) 90
[36] = 5.0 mg/kg, time after administration (min) 120
[37] = 5.0 mg/kg, time after administration (min) 180

COc1ccc([C@H]2OCC3C2CO[C@H]3c2ccc(OC)c(OC(=O)C(C)c3ccc(CC(C)C)cc3)c2)cc1OC (stereo partly shown) [Phillygenin ibuprofen ester, phillygenin ibuprofen ester]
effect on average lung index vs infection model group ([1]; mouse, in vivo): certain protective effect
Lung index (X ± S) ([1]; 3.25 mg/kg/d intragastric): 1.320 ± 0.053
Lung index Inhibitive rate (%) ([1]; 3.25 mg/kg/d intragastric): 17.01%
Lung index (X ± S) ([1]; 13.0 mg/kg/d intragastric): 1.237 ± 0.070
Lung index Inhibitive rate (%) ([1]; 13.0 mg/kg/d intragastric): 22.25%
Hemagglutination titer (InX) ([2]; 3.25 mg/kg/d): 22.01 ± 1.420
Hemagglutination titer Inhibitive rate (%) ([2]; 3.25 mg/kg/d): 32.07%
Hemagglutination titer (InX) ([2]; 13.0 mg/kg/d): 19.32 ± 0.624
Hemagglutination titer Inhibitive rate (%) ([2]; 13.0 mg/kg/d): 40.36%
Hemagglutination titer (InX) ([3]; 3.25 mg/kg/day): 21.55 ± 0.857
Hemagglutination titer Inhibitive rate (%) ([3]; 3.25 mg/kg/day): 34.90%
Hemagglutination titer (InX) ([3]; 13 mg/kg/day): 19.75 ± 0.902
Hemagglutination titer Inhibitive rate (%) ([3]; 13 mg/kg/day): 40.34%
effect on the sweat secretion of rat paw part vs control group ([4]; 10 mg/kg, after coating B liquid for 5, 10, 15 and 20 min, P<0.05): obvious promoting effect
Animal number of sweat points of level + [4, 9]: 2
Animal number of sweat points of level ++ [4, 9]: 3
Animal number of sweat points of level +++ [4, 9]: 3
Animal number of sweat points of level ++++ [4, 9]: 2
Animal number of sweat points of level − [4, 9]: 0
Animal number of sweat points of level + [4, 10]: 1
Animal number of sweat points of level ++ [4, 10]: 2
Animal number of sweat points of level +++ [4, 10]: 3
Animal number of sweat points of level ++++ [4, 10]: 4
Animal number of sweat points of level − [4, 10]: 0
Animal number of sweat points of level + [4, 11]: 1
Animal number of sweat points of level ++ [4, 11]: 3
Animal number of sweat points of level +++ [4, 11]: 1
Animal number of sweat points of level ++++ [4, 11]: 5
Animal number of sweat points of level − [4, 11]: 0
Animal number of sweat points of level + [4, 12]: 1
Animal number of sweat points of level ++ [4, 12]: 3
Animal number of sweat points of level +++ [4, 12]: 3
Animal number of sweat points of level ++++ [4, 12]: 3
Animal number of sweat points of level − [4, 12]: 0
Animal number of sweat points of level + [4, 13]: 1
Animal number of sweat points of level ++ [4, 13]: 4
Animal number of sweat points of level +++ [4, 13]: 1
Animal number of sweat points of level ++++ [4, 13]: 5
Animal number of sweat points of level − [4, 13]: 0
Animal number of sweat points of level + [4, 14]: 0
Animal number of sweat points of level ++ [4, 14]: 3
Animal number of sweat points of level +++ [4, 14]: 2
Animal number of sweat points of level ++++ [4, 14]: 5
Animal number of sweat points of level − [4, 14]: 0
Animal number of sweat points of level + [4, 15]: 1
Animal number of sweat points of level ++ [4, 15]: 2
Animal number of sweat points of level +++ [4, 15]: 3
Animal number of sweat points of level ++++ [4, 15]: 4
Animal number of sweat points of level − [4, 15]: 0
Animal number of sweat points of level + [4, 16]: 0
Animal number of sweat points of level ++ [4, 16]: 3
Animal number of sweat points of level +++ [4, 16]: 2
Animal number of sweat points of level ++++ [4, 16]: 5
Animal number of sweat points of level − [4, 16]: 0
Animal number of sweat points of level + [4, 17]: 0
Animal number of sweat points of level ++ [4, 17]: 2
Animal number of sweat points of level +++ [4, 17]: 3
Animal number of sweat points of level ++++ [4, 17]: 5
Animal number of sweat points of level − [4, 17]: 0
Animal number of sweat points of level + [4, 18]: 1
Animal number of sweat points of level ++ [4, 18]: 3
Animal number of sweat points of level +++ [4, 18]: 1
Animal number of sweat points of level ++++ [4, 18]: 5
Animal number of sweat points of level − [4, 18]: 0
Animal number of sweat points of level + [4, 19]: 0
Animal number of sweat points of level ++ [4, 19]: 2
Animal number of sweat points of level +++ [4, 19]: 3
Animal number of sweat points of level ++++ [4, 19]: 5
Animal number of sweat points of level − [4, 19]: 0
Animal number of sweat points of level + [4, 20]: 0
Animal number of sweat points of level ++ [4, 20]: 1
Animal number of sweat points of level +++ [4, 20]: 4
Animal number of sweat points of level ++++ [4, 20]: 5
Animal number of sweat points of level − [4, 20]: 0
Animal number of sweat points of level + [4, 21]: 0
Animal number of sweat points of level ++ [4, 21]: 2
Animal number of sweat points of level +++ [4, 21]: 3
Animal number of sweat points of level ++++ [4, 21]: 5
Animal number of sweat points of level − [4, 21]: 0
Animal number of sweat points of level + [4, 22]: 0
Animal number of sweat points of level ++ [4, 22]: 1
Animal number of sweat points of level +++ [4, 22]: 4
Animal number of sweat points of level ++++ [4, 22]: 5
Animal number of sweat points of level − [4, 22]: 0
Animal number of sweat points of level + [4, 23]: 0
Animal number of sweat points of level ++ [4, 23]: 0
Animal number of sweat points of level +++ [4, 23]: 5
Animal number of sweat points of level ++++ [4, 23]: 5
Animal number of sweat points of level − [4, 23]: 0
Body temperature (° C.) [5, 24]: 40.68 ± 0.41 °C
antipyretic percentage (%) [5, 24]: 0.98 ± 0.11%
Body temperature (° C.) [5, 25]: 40.61 ± 0.38 °C
antipyretic percentage (%) [5, 25]: −1.15 ± 0.15 %
Body temperature (° C.) [5, 26]: 40.50 ± 0.39 °C
antipyretic percentage (%) [5, 26]: −1.40 ± 0.20 %
Body temperature (° C.) [5, 27]: 40.29 ± 0.42 °C
antipyretic percentage (%) [5, 27]: −1.92 ± 0.31 %
Body temperature (° C.) [5, 28]: 40.10 ± 0.35 °C
antipyretic percentage (%) [5, 28]: −2.39 ± 0.43 %
Body temperature (° C.) [5, 29]: 40.83 ± 0.39 °C
antipyretic percentage (%) [5, 29]: −1.10 ± 0.00 %
Body temperature (° C.) [5, 30]: 40.37 ± 0.33 °C
antipyretic percentage (%) [5, 30]: −2.20 ± 0.05**^Δ▴▴ %
Body temperature (° C.) [5, 31]: 40.12 ± 0.21 °C
antipyretic percentage (%) [5, 31]: −2.81 ± 0.12 %
Body temperature (° C.) [5, 32]: 40.02 ± 0.20 °C
antipyretic percentage (%) [5, 32]: −3.06 ± 0.43 %
Body temperature (° C.) [5, 33]: 39.90 ± 0.25 °C
antipyretic percentage (%) [5, 33]: −3.35 ± 0.29 %
antipyretic percentage (%) ([5]; 5.0 mg/kg, 60 min after administration): −2.61 ± 0.10**^ΔΔ▴▴ %
Body temperature (° C.) [5, 34]: 40.57 ± 0.28 °C
antipyretic percentage (%) [5, 34]: −1.30 ± 0.11 %
Body temperature (° C.) ([5]; 5.0 mg/kg, time after administration (min) 60): 40.04 ± 0.20 °C
Body temperature (° C.) [5, 35]: 39.88 ± 0.23 °C
antipyretic percentage (%) [5, 35]: −2.98 ± 0.22 %
Body temperature (° C.) [5, 36]: 39.65 ± 0.20 °C
antipyretic percentage (%) [5, 36]: −3.54 ± 0.18***^Δ▴▴▴ %
Body temperature (° C.) [5, 37]: 39.42 ± 0.25 °C
antipyretic percentage (%) [5, 37]: −4.10 ± 0.17***^Δ▴▴ %
effect on rabbit fever induced by the typhoid and paratyphoid vaccines vs model group ([5]; high and medium dose groups (5, 10 mg/kg) 30-240 min, low dose group (5 mg/kg) 60-240 min after administration): significant antipyretic effect
Writhing times ([6]; 75 mg/kg intragastric): 15.8*
Writhing times ([6]; 150 mg/kg intragastric): 6.5*
Writhing times ([6]; 300 mg/kg intragastric): 3.9*^#
effect on mice pain induced by acetic acid vs blank control group ([6]; low, medium and high dose groups (75, 150, 300 mg/kg), P<0.01): had analgesic effect
solubility [7]: soluble in methanol; chloroform, and dichloromethane
Median toxic concentration (TC50) [8]: 485 µg/mL
maximal non-toxic concentration (TC0) [8]: 0.109 g/L
